Assay results published in publication PMC9967275, “Screening the Pathogen Box to Discover and Characterize New Cruzain and TbrCatL Inhibitors” (Pathogens, 2023).

Tests used:
cruzain = cruzain (Trypanosoma cruzi, UniProt P25779); assay: biochemical; conditions: for Cruzain 0’ Inhibition / Cruzain 10’ Inhibition: sheet "Screening results"
Method in brief: (§1)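 Recombinant enzymes assayed by Z-Phe-Arg-AMC cleavage at 25 °C, fluorescence 340/440 nm over 5–7 min, with 10 min or no enzyme–compound preincubation.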

TbrCatL = target: T1, TbrCatL (Trypanosoma brucei rhodesiense, UniProt Q95PM0); assay: TbrCatL enzymatic inhibition assay (cleavage of fluorogenic substrate Z-FR-AMC); assay type: biochemical; conditions: for TbrCatL 0’ Inhibition / TbrCatL 10’ Inhibition: sheet "Screening results"
T1 construct: Conor Caffrey (University of California San Diego)
Method in brief: as §1

[1] = 0’ (no pre-incubation), sheet Screening results
[2] = 10’ (pre-incubation), sheet Screening results
[3] = 0’ (pre-incubation time), Pathogen Box screening results
[4] = 10’ (pre-incubation time), Pathogen Box screening results
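Further: at 5 µM compound concentration.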

T1 sequence (Q95PM0 entry or part of it): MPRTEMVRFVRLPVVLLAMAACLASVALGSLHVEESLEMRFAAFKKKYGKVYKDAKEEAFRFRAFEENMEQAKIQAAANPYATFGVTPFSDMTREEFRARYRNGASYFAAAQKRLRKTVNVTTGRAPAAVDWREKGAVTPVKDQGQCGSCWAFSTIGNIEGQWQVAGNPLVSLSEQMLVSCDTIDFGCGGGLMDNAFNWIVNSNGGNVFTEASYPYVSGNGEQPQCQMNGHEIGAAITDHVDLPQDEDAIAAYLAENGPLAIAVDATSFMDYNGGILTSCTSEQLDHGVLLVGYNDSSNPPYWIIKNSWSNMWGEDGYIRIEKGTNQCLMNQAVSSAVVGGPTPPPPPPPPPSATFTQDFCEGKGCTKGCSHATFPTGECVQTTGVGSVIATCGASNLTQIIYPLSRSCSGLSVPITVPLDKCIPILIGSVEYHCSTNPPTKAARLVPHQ
Chain of cruzain (P25779 123-337 limits assumed): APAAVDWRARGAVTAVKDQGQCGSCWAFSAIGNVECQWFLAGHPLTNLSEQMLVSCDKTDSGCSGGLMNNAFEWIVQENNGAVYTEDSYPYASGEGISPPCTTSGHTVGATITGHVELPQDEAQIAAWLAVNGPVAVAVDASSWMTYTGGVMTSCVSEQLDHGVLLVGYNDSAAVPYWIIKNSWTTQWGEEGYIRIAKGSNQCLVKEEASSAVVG

Structure (SMILES)	Cruzain Inhibition 0’ (cruzain; [1]) [%]	Cruzain Inhibition 10’ (cruzain; [2]) [%]	TbrCatL Inhibition 0’ (TbrCatL; [1]) [%]	TbrCatL Inhibition 10’ (TbrCatL; [2]) [%]	other results
COc1cc(C2=NCCN2)ccc1-n1cc(-c2cccc(C3=NCCN3)c2)nn1 [MMV688474]	–	–	–	–	Cruzain 0’ Inhibition (cruzain; 0’ (pre-incubation time)): 2.4%; Cruzain 10’ Inhibition (cruzain; 10’ (pre-incubation time)): 13%; TbrCatL 0’ Inhibition (TbrCatL; 0’ (pre-incubation time)): 10%; TbrCatL 10’ Inhibition (TbrCatL; 10’ (pre-incubation time)): 30%
CC(=O)NCC1CN(c2ccc(-c3ccc(CO)cc3)c(F)c2)C(=O)O1 (stereo not shown) [MMV688508]	-0.1	-2	-0.7	-5	–
O=C(OCc1ccccc1)N1CCC(c2cc(-c3ccncc3)c(-c3ccc(F)cc3)[nH]2)CC1 [MMV688509]	–	–	–	–	Cruzain 0’ Inhibition (cruzain; 0’ (pre-incubation time)): -3.8%; Cruzain 10’ Inhibition (cruzain; 10’ (pre-incubation time)): 3.8%; TbrCatL 0’ Inhibition (TbrCatL; 0’ (pre-incubation time)): -13%; TbrCatL 10’ Inhibition (TbrCatL; 10’ (pre-incubation time)): -13%
N=C(N)c1ccc(-c2cc(-c3ccccc3)on2)cc1 [MMV688514]	14	13	20	-6.6	–
CC(C)(C)C(=O)N(CCCCCCN1C[C@H](O)[C@@H](O)[C@H](O)[C@H]1CO)C1CCCCCC1 [MMV688543]	–	–	–	–	Cruzain Inhibition 0’ (cruzain; [3]): -1.2%; Cruzain Inhibition 10’ (cruzain; [4]): 7.5%; TbrCatL Inhibition 0’ (TbrCatL; [3]): -7%; TbrCatL Inhibition 10’ (TbrCatL; [4]): 1.7%
COc1ccc(C2=NCCN2)cc1-c1cn(-c2cccc(C3=NCCN3)c2)nn1 [MMV688547]	10	13	6	4	–
CC(C)(C)n1nc(-c2ccccc2)c2c(N)ncnc21 [MMV688548]	8	10	20	12	–
CCc1ccccc1-n1c(C)cn2c3c(=O)n(C(C(=O)OC)C(C)C)c(=O)n(C)c3nc12 (stereo not shown) [MMV688550]	–	–	–	–	Cruzain Inhibition 0’ (cruzain; [3]): -4.3%; Cruzain Inhibition 10’ (cruzain; [4]): 3.2%; TbrCatL Inhibition 0’ (TbrCatL; [3]): -16%; TbrCatL Inhibition 10’ (TbrCatL; [4]): 0.4%
Cc1nn(C(=O)Nc2cccc(C(F)(F)F)c2)c(C)c1Sc1ncccn1 [MMV688552]	–	–	–	–	Cruzain Inhibition 0’ (cruzain; [3]): 2.3%; Cruzain Inhibition 10’ (cruzain; [4]): 0.1%; TbrCatL Inhibition 0’ (TbrCatL; [3]): -0.1%; TbrCatL Inhibition 10’ (TbrCatL; [4]): 5%
O=C(NCc1ccoc1)N1CCN(Cc2ccc3c(c2)OCO3)CC1 [MMV688553]	-7	0.9	-1.2	-6.4	–
CNc1snc(C)c1C(=O)NCCOc1ccc(OC)cc1 [MMV688554]	-8	-4.6	-7	-8	–
O=C(NCc1ccco1)N1CCN(Cc2ccc(Cl)s2)CC1 [MMV688555]	-0.7	0.5	6	0.9	–
NCC(c1cccs1)S(=O)(=O)c1ccccc1 (stereo not shown) [MMV688557]	–	–	–	–	Cruzain Inhibition 0’ (cruzain; [3]): 2.3%; Cruzain Inhibition 10’ (cruzain; [4]): 0.1%; TbrCatL Inhibition 0’ (TbrCatL; [3]): -0.6%; TbrCatL Inhibition 10’ (TbrCatL; [4]): 1.2%
CN1CCC(c2cc(-c3ccncc3)c(-c3ccc(F)cc3)[nH]2)CC1 [MMV688703]	–	–	–	–	Cruzain 0’ Inhibition (cruzain; 0’ (pre-incubation time)): 3.7%; Cruzain 10’ Inhibition (cruzain; 10’ (pre-incubation time)): 1.9%; TbrCatL 0’ Inhibition (TbrCatL; 0’ (pre-incubation time)): 6%; TbrCatL 10’ Inhibition (TbrCatL; 10’ (pre-incubation time)): 3.6%
Cc1cc2nc(NC(=O)C(C)(C)C)nc(Cl)c2n1Cc1ccc(Cl)cc1 [MMV688704]	11	10	16	16	–
CO/N=C(/C(=O)OC)c1ccccc1CO/N=C(/C)c1cccc(C(F)(F)F)c1 [MMV688754]	–	–	–	–	Cruzain Inhibition 0’ (cruzain; [3]): 0.9%; Cruzain Inhibition 10’ (cruzain; [4]): 3.5%; TbrCatL Inhibition 0’ (TbrCatL; [3]): -4%; TbrCatL Inhibition 10’ (TbrCatL; [4]): -1.2%
O=[N+]([O-])c1cn2c(n1)OC[C@@H](OCc1ccc(OC(F)(F)F)cc1)C2 [MMV688755]	–	–	–	–	Cruzain Inhibition 0’ (cruzain; [3]): 3%; Cruzain Inhibition 10’ (cruzain; [4]): 6.6%; TbrCatL Inhibition 0’ (TbrCatL; [3]): -0.5%; TbrCatL Inhibition 10’ (TbrCatL; [4]): 4%
CC(=O)NC[C@H]1CN(c2ccc(N3CCSCC3)c(F)c2)C(=O)O1 [MMV688756]	14	11	10	7	–
CS(=O)(=O)c1ccc(C(=O)N(CC2CCCO2)c2nc3ccccc3s2)cc1[N+](=O)[O-] (stereo not shown) [MMV688761]	-0.3	5.7	-0.9	1.2	–
c1ccc(-c2[nH]c3ccccc3c2C(c2ccccn2)N2CCCC2)cc1 (stereo not shown) [MMV688762]	3.2	1	3.2	1.8	–
CNc1nnc(Sc2cnn(-c3ccccc3)c(=O)c2Cl)s1 [MMV688763]	6	9	7.5	1.7	–
COc1ccc(-c2onc(C(F)(F)F)c2-c2ccc(Cl)cc2)c(O)c1 [MMV688766]	–	–	–	–	Cruzain 0’ Inhibition (cruzain; 0’ (pre-incubation time)): 1%; Cruzain 10’ Inhibition (cruzain; 10’ (pre-incubation time)): -2.5%; TbrCatL 0’ Inhibition (TbrCatL; 0’ (pre-incubation time)): 0%; TbrCatL 10’ Inhibition (TbrCatL; 10’ (pre-incubation time)): -5%

Structure (SMILES)	Cruzain Inhibition 0’ (cruzain; [1]) [%]	Cruzain Inhibition 10’ (cruzain; [2]) [%]	TbrCatL Inhibition 0’ (TbrCatL; [1]) [%]	TbrCatL Inhibition 10’ (TbrCatL; [2]) [%]	other results
Cc1[nH]c2ccccc2c1C(c1cccs1)N1CCN(C)CC1 (stereo not shown) [MMV688768]	2.7	9	0.9	2.4	–
Cc1ccccc1C(=O)N1NC(=Nc2ccccc2)SC1(C)C [MMV688771]	–	–	–	–	Cruzain 0’ Inhibition (cruzain; 0’ (pre-incubation time)): 29%; Cruzain 10’ Inhibition (cruzain; 10’ (pre-incubation time)): 8%; TbrCatL 0’ Inhibition (TbrCatL; 0’ (pre-incubation time)): -5%; TbrCatL 10’ Inhibition (TbrCatL; 10’ (pre-incubation time)): 0.3%
O=C(Cn1ccnc1[N+](=O)[O-])NCc1ccccc1 [MMV688773]	19	4	4.3	3.7	–
CC[C@@H]([C@H](C)O)n1ncn(-c2ccc(N3CCN(c4ccc(OC[C@@H]5CO[C@@](Cn6cncn6)(c6ccc(F)cc6F)C5)cc4)CC3)cc2)c1=O [MMV688774]	9	10	3.6	8	–
Cc1cccnc1NC(=O)c1cccc(OCc2c(C)noc2C)c1 [MMV688793]	16	10	14	10	–
O=C(NCCc1ccn(-c2ccccc2)n1)C1CCCCC1 [MMV688795]	–	–	–	–	Cruzain 0’ Inhibition (cruzain; 0’ (pre-incubation time)): 3.2%; Cruzain 10’ Inhibition (cruzain; 10’ (pre-incubation time)): 4%; TbrCatL 0’ Inhibition (TbrCatL; 0’ (pre-incubation time)): 5%; TbrCatL 10’ Inhibition (TbrCatL; 10’ (pre-incubation time)): 5.4%
O=C(NCc1nnc2n1CCCCC2)c1ccc(-c2ccc(F)cc2)o1 [MMV688796]	15	7	7	-2.4	–
CC1CCCCN1C(=O)NCCc1coc(-c2ccc(F)cc2)n1 (stereo not shown) [MMV688797]	15	10	16	15	–
CS(=O)(=O)c1ccccc1C(=O)N(Cc1ccccc1)c1ccccc1 [MMV688798]	13	1.2	1.5	-1.9	–
COc1ccc2nccc(NC(=O)C3CCN(CCc4ccc(Cl)cc4)CC3)c2n1 [MMV688844]	–	–	–	–	Cruzain 0’ Inhibition (cruzain; 0’ (pre-incubation time)): 1.4%; Cruzain 10’ Inhibition (cruzain; 10’ (pre-incubation time)): -1.1%; TbrCatL 0’ Inhibition (TbrCatL; 0’ (pre-incubation time)): 4%; TbrCatL 10’ Inhibition (TbrCatL; 10’ (pre-incubation time)): -1.5%
O=C(N[C@H](Cc1ccccc1)C(=O)Nc1ccccc1N1CCOCC1)c1cccs1 [MMV688845]	–	–	–	–	Cruzain 0’ Inhibition (cruzain; 0’ (pre-incubation time)): 1%; Cruzain 10’ Inhibition (cruzain; 10’ (pre-incubation time)): 4.5%; TbrCatL 0’ Inhibition (TbrCatL; 0’ (pre-incubation time)): -0.3%; TbrCatL 10’ Inhibition (TbrCatL; 10’ (pre-incubation time)): 2.3%
Cc1ccccc1CN1CCC(O)(c2ccc(Cl)c(C(F)(F)F)c2)CC1 [MMV688846]	10	3	2.5	-17	–
CC(C)(C)n1nc(Cc2ccc(F)c(Cl)c2)c2c(N)ncnc21 [MMV688852]	6	0.5	-2.7	-13	–
CCOc1ccc2cc(-c3nn(C(C)(C)C)c(N)c3C(N)=O)cnc2c1 [MMV688853]	5.4	4	7	-4	–
CCOc1ccc2cc(-c3nn(CC4CCN(C)CC4)c4ncnc(N)c34)ccc2c1 [MMV688854]	27	11	2.7	-5	–
CN1CCN(c2cc(-c3ccc(F)cc3)nc(-c3ccncc3)n2)CC1 [MMV688888]	18	14	19	9	–
Clc1ccc(CCNc2cc(-c3ccccc3)nc3ncnn23)cc1 [MMV688889]	15	14	20	13	–
COc1cc(Br)cc2cc(C(=O)Nc3cccc(C(F)(F)F)c3)c(=O)oc12 [MMV688891]	–	–	–	–	Cruzain 0’ Inhibition (cruzain; 0’ (pre-incubation time)): -4.4%; Cruzain 10’ Inhibition (cruzain; 10’ (pre-incubation time)): -0.7%; TbrCatL 0’ Inhibition (TbrCatL; 0’ (pre-incubation time)): 0%; TbrCatL 10’ Inhibition (TbrCatL; 10’ (pre-incubation time)): -2.6%
OC[C@H]1O[C@@H](n2c3ccc(Cl)cc3c3c(-c4cc5ccccc5o4)ncnc32)C(O)[C@H]1O (stereo partly shown) [MMV688921]	–	–	–	–	Cruzain 0’ Inhibition (cruzain; 0’ (pre-incubation time)): 4.7%; Cruzain 10’ Inhibition (cruzain; 10’ (pre-incubation time)): 11%; TbrCatL 0’ Inhibition (TbrCatL; 0’ (pre-incubation time)): 5.5%; TbrCatL 10’ Inhibition (TbrCatL; 10’ (pre-incubation time)): 4.4%
CCc1nn(C)c(C(=O)NCc2ccc(Oc3ccc(C)cc3)cc2)c1Cl [MMV688934]	15	7.4	18	14	–
O=C(c1ccco1)N(CCCn1ccnc1)c1nc2c(Cl)cccc2s1 [MMV688936]	5.6	-0.2	19	0.6	–
